Assay [1] deals with epimastigotes of T. cruzi Arequipa. The experiment in a line: 1H NMR analysis of excreted metabolites. Format: cell-based, Trypanosoma cruzi. Particulars: IC25 concentrations, 72 h. On the procedure:
5 × 10^5 epimastigotes·mL^−1 of T. cruzi Arequipa were treated by adding the tested compounds at IC25 concentrations in 25 cm^2 cell culture flasks at 28 °C for 72 h. Untreated controls were also included. Cultures were then centrifuged and filtered, and the metabolites of the supernatants were analyzed using a ^1H NMR spectrometer (VARIAN DIRECT DRIVE 500 MHz […]) with AutoX probe, D2O as solvent and 2,2-dimethyl-2-silapentane-5-sulphonate as the reference signal. Chemical shifts were expressed in parts per million (ppm), and analyses were conducted as previously reported.

Another assay relates to Trypanosoma cruzi. The experiment in a line: Anti-T. cruzi IgG (ELISA) and splenomegaly in treated BALB/c mice. Format: in vivo. The protocol:
Otherwise, the immune status of the mice was evaluated—through the titer of total anti-T. cruzi IgG and the splenomegaly (Figure S1)—since it is a characteristic linked to the parasite load and the effectiveness ascribed to the potential candidates. […].
All in vivo assays for the evaluation of compounds in the acute and chronic CD (Scheme 1)—monitoring of parasitemia, immunosuppression, PCR [59, 60], ELISA [56], and clinical analysis [56]—were performed as previously described. PCR was based on the Spliced Leader (SL) intergenic region sequence of T. cruzi (for detailed description, see literature reported previously).
Figure S1. A) Anti-Trypanosoma cruzi immunoglobulin G levels, expressed in absorbance at 492 nm, at different days post-infection (dpi) for each group of mice treated during the acute and chronic phases of Chagas disease: control (untreated), benznidazole (BZN), 8, 10 and 15. Blank and uninfected mice are also […]
included. […] Values are the means of three mice ± standard deviation. (IS) immunosuppression. * Significant differences between untreated and treated mice for α =
0.05. B) Weight percentage of spleens in the chronic Chagas disease for each group of mice treated during the acute and chronic phases of the disease: control (untreated), benznidazole (BZN), 8, 10 and 15. Values are the means of three mice ± standard deviation. In brackets: reduction of splenomegaly in comparison to […]
(1 picture or pasted object on this page, not shown here)

Assay [2] deals with Trypanosoma cruzi amastigotes in Vero cells. In words: Infection rate and amastigotes per Vero cell over 10 days. Format: cell-based. Particulars: IC25 concentrations, measured at 2 days intervals for 10 days. The protocol:
Before going ahead on in vivo trials, the in vitro infection rate and the average number of amastigotes per Vero cell were also measured at 2 days intervals for 10 days after treating the infected cultures with BZN and potential candidates (8, 10, and 15) (Figure 1) at ICH25 concentrations resulting from amastigotes screening. […]. Fast-acting drugs are urgently needed, and this feature is an additional advantage since they can eliminate the parasite in a few doses.
Trypanocidal activity against amastigotes was determined according to the literature reported previously. […]. […] Each compound concentration was tested in triplicate in four separate determinations.
Figure 1 (A) Percentage of infected Vero cells and (B) number of amastigotes of Trypanosoma cruzi per Vero cell exposed to benznidazole (BZN), 8, 10 and 15. Values constitute means of three separate determinations ± standard deviation. * Significant differences between untreated and treated parasites for α = 0.05. dpi, days post-infection.

The subject of a further assay is Mammalian Vero cells. The experiment in a line: Cytotoxicity test on Vero cells (resazurin). Format: cell-based. Particulars: Chlorocebus sabaeus, 72 h; Table 1; Vero cells, 48 h + 24 h resazurin; read-out: Toxicity IC50 Vero Cell.

Each structure is given as a SMILES string.

With `FC(F)(F)c1ccc(C[Se][Se]Cc2ccc(C(F)(F)F)cc2)cc1` [compound 8], in assay [1], the “variation of excreted metabolites versus untreated parasites” value was under 10%. Besides, the “IgG levels in the acute treatment” value in the assay with Trypanosoma cruzi (from the beginning to the end of the in vivo timeline) was “very low IgG levels”. In the assay with Trypanosoma cruzi (treated BALB/c mice versus untreated, excluding IgG levels of chronic CD), the “total anti-T. cruzi IgG levels and splenomegaly” value is reported as “significant reduction”. In addition, the “infection rate and average number of amastigotes per Vero cell” value in assay [2] is “decrease in both infection rate and number of amastigotes per cell in a time-dependent manner”. In addition, in the assay with Mammalian Vero cells, the CC50 came out at 44.3 ± 2.7 µM.
